Details of series [1]: species or system mice. The following applies: mouse, in vivo. As for the experimental part: FIG. 10. […]. Perfusion of the ventral ear in age and weight matched wild-type C57B1/6 mice was measured with laser doppler. […] The first dose was 25 mg/kg, the second dose was 50 mg/kg and the third dose was 100 mg/kg. Wild-type (rechallenge) mice received all three doses of nicotinic acid and wild-type (control) mice received the first dose of nicotinic acid followed by two subsequent doses with vehicle alone. Plotted values represent the mean change in perfusion as a function of time from 8 animals.

A short description of series [2]: Mouse cutaneous flushing assay (laser Doppler perfusion of ventral ear). Format: in vivo, mice. The conditions noted are these: i.p. 100 mg/kg. The procedure:
FIGS. 8A-8E. […] Animal use and protocols. […] The animals were euthanized 30 minutes later. Serum was collected and stored at −80° C. […] Readings were continually recorded for 30 minutes.

For series [3] the following is noted: nicotinic acid therapy; cited from earlier work.
The subject of series [4] is differentiated THP-1 macrophages. The conditions noted are these: 200 μM for 10 minutes; data not shown.
The conditions of series [5]: i.p. 10, 50 or 100 mg/kg; wild-type C57BL/6, β-arrestin1-deficient and β-arrestin2-deficient mice. As for the experimental part:
(§1) FIG. 7. […] Animal use and protocols. All animal studies were reviewed and approved by the Duke University Internal Animal Care and Use Committee. […] Age- and weight-matched male mice over 12 weeks of age were used in all experiments. […] The animals were euthanized 30 minutes later. Serum was collected and stored at −80° C. […] After 10 minutes, the mice were placed under an LDPI laser Doppler (PeriScan PIM II; Perimed). The right ear was everted to expose the anterior/ventral surface. The laser Doppler was focused on the central portion of the ventral ear. Data were collected using the repeated data collection mode with a 5-mm×5-mm image size, a 10-second delay, and high-resolution scan. […] Readings were continually recorded for 30 minutes. As a control, each animal was subsequently treated with 4 mg/kg PGD2 dissolved in PBS.

For series [6], the system named is peritoneal macrophages. The following applies: 200 μM, 10 minutes. As for the experimental part: as §1, with “FIGS. 8A-8E. […] Data are mean±SEM for change in perfusion as a function of time. […] (FIG. 8D) Maximum response to PGD2, plotted as mean±SEM (n=15−25 per condition). […] Thioglycollate-elicited peritoneal macrophages were loaded with H3-arachidonic acid (H3-AA) for 24 hours, and then rinsed to remove arachidonic acid not incorporated into cell membrane lipids.” for “FIG. 7.”

Series [7] concerns Langerhans cells. The following applies: 10 μM for 10 minutes.
Description: Data are mean±SEM of 3 independent experiments.
The plates were transferred on ice, and cells were washed twice with ice-cold PBS and then scraped in PBS containing complete protease inhibitor cocktail (Roche Applied Sciences). Cells were lysed by brief sonication and then centrifuged at 3,000 g for 5 minutes to remove unbroken cells and nuclear fractions. Subsequently, the supernatant was centrifuged at 21,000 g for 30 minutes to separate the membrane fraction (in the pellet) and cytosolic fraction (in the supernatant). The membrane pellet was resuspended in PBS, proteins in the membrane and the cytosolic fractions were measured by Bradford assay, and β-arrestins were detected by Western blot analysis.
In series [8] the test system is cPLA2. Format: cell-based. The following applies: pretreatment of cells.
Description: Agonist-stimulated activation of cPLA2 in the presence of control siRNA, β-arrestin1 siRNA, or control siRNA plus either pertussis toxin or PD98059 (PD). […] (FIG. 6D) Activation or phosphorylation of cPLA2 in siRNA-treated cells. **P=0.0085 versus respective 10-minute value; ***P=0.0047 versus respective 0-minute value. Data are mean±SEM of 3 independent experiments.
Immunoblotting and immunoprecipitation. […] For immunoprecipitation, cells were treated with serum-free media with and without nicotinic acid. Cells were washed once with PBS at 4° C., harvested by gentle scraping, pelleted, and resuspended in glycerol lysis buffer including protease and phosphatase inhibitors. […] Immunoprecipitation reactions were incubated at 4° C. for 3 hours, washed 3 times with glycerol lysis buffer, and resuspended in SDS running buffer. Samples were subjected to SDS-PAGE analysis and Western blotting with cPLA2 antibody (diluted 1:1,000; Cell Signaling Technology), phosphorylated cPLA2 antibody (diluted 1:1,000; Cell Signaling Technology), M2 antibody (diluted 1:2,000; Sigma-Aldrich), and β-arrestin antibody (diluted 1:1,000; BD Biosciences).
In series [9] the target is T1, GPR109A (Homo sapiens, UniProt Q8TDS4).
T1 construct: expressed in transfected cells; plus Zeocin with ICUE2
Put plainly: ICUE cAMP assay in HEK-293 cells expressing FLAG-GPR109A and ICUE2 biosensor. The format is cell-based. As for the experimental part:
ICUE cAMP assay. […] Experiments were performed on a NOVOstar plate reader (BMG Labtech).

The target in series [10] is T1, GPR109A. Put plainly: Phosphorylated ERK immunoblotting in HEK-293 cells. The format is cell-based. The conditions noted are these: GPR109A-expressing cells.
Description: Total ERK1/2 was detected with anti-MAPK1/2 (diluted 1:3,000; Upstate Biotechnology). […] Anti-rabbit and anti-mouse secondary antibodies for Western blots were obtained from Amersham Biosciences. For immunoprecipitation, cells were treated with serum-free media with and without nicotinic acid. Cells were washed once with PBS at 4° C., harvested by gentle scraping, pelleted, and resuspended in glycerol lysis buffer including protease and phosphatase inhibitors. […] Immunoprecipitation reactions were incubated at 4° C. for 3 hours, washed 3 times with glycerol lysis buffer, and resuspended in SDS running buffer. Samples were subjected to SDS-PAGE analysis and Western blotting with cPLA2 antibody (diluted 1:1,000; Cell Signaling Technology), phosphorylated cPLA2 antibody (diluted 1:1,000; Cell Signaling Technology), M2 antibody (diluted 1:2,000; Sigma-Aldrich), and β-arrestin antibody (diluted 1:1,000; BD Biosciences).
The conditions of series [11]: literature; cited from earlier work.

Where two headings read alike, the source gives them in different places.

T1 sequence (Q8TDS4 whole entry, species assumed): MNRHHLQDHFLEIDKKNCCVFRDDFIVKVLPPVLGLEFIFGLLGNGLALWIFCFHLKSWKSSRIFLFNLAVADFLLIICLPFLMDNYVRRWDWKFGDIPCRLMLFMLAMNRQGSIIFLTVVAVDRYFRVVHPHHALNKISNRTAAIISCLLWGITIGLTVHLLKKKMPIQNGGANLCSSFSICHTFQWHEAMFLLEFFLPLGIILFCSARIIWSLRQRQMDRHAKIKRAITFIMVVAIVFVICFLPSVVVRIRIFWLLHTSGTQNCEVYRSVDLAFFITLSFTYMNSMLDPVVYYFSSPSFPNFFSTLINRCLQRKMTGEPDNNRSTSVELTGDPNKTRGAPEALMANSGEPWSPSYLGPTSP

In the case of `O=C(O)c1cccnc1` [nicotinic acid, Nicotinic acid], the “tachyphylaxis to cutaneous vasodilation/flushing” value in series [1] was “rapid tachyphylaxis”. Further, the “nicotinic acid-stimulated increase in perfusion in β-arrestin1-deficient mice” value in [2] (versus wild type) is listed as “dramatically decreased”. The “perfusion of the ventral ear” value in series [2] (wild-type and β-arrestin2-deficient mice) was “dramatic increase in perfusion”. In addition, the “occurrence of cutaneous vasodilation or flushing side effect” value in [3] is ~80 % of patients. Besides, the “β-arrestin1 translocation in differentiated THP-1 macrophages” value in series [4] is recorded as “led to β-arrestin1 translocation”. In addition, the “serum FFAs” value in series [5] is “significant and essentially identical decreases in FFAs”. Also, the “release of radiolabeled eicosanoids in β-arrestin1-deficient cells” value in series [6] (versus wild type) is “significantly reduced”. The “release of radiolabeled eicosanoids” value in series [6] (wild-type and β-arrestin2-deficient macrophages) is “increased”. Moreover, in series [7], the “recruitment of β-arrestin1 to the membrane of Langerhans cells” value is “robust recruitment”.
Consider pertussis toxin, for which, in [8], the “basal level of phosphorylated cPLA2 after pretreatment” value is “substantially increased”. The “MK-0354-induced cAMP decrease, sensitivity to pertussis toxin” value in series [9] (agonist MK-0354) is listed as “sensitive”. Moreover, in series [9] (agonist nicotinic acid), the “nicotinic acid-induced cAMP decrease, sensitivity to pertussis toxin” value is reported as “sensitive”. In addition, the “effect on nicotinic acid-stimulated ERK phosphorylation” value in [10] is “all but eliminated”.
With `C1Cc2[nH]nc(-c3nn[nH]n3)c2C1` [MK-0354], in series [11], the cutaneous flushing entry was “do not induce cutaneous flushing” and the “serum FFAs” value is listed as “decrease serum FFAs”.
As to `COc1cccc(-c2cc(=O)c3ccccc3o2)c1N` [PD98059], the “basal level of phosphorylated cPLA2 after pretreatment” value in series [8] is “substantially increased”.
